What was measured:
[1] = target: T1, melon (Cucumis melo) fruit alkaline alpha-galactosidase Form II (Cucumis melo, UniProt Q84NI6); test: Substrate kinetics (Lineweaver-Burk) of alkaline alpha-galactosidase Form II; assay type: biochemical, muskmelon (Cucumis melo L. cv C-8)
T1 construct: native 102 kDa, denatured 92 kDa; assayed at pH 7.5
T1 sequence (Q84NI6 1-772): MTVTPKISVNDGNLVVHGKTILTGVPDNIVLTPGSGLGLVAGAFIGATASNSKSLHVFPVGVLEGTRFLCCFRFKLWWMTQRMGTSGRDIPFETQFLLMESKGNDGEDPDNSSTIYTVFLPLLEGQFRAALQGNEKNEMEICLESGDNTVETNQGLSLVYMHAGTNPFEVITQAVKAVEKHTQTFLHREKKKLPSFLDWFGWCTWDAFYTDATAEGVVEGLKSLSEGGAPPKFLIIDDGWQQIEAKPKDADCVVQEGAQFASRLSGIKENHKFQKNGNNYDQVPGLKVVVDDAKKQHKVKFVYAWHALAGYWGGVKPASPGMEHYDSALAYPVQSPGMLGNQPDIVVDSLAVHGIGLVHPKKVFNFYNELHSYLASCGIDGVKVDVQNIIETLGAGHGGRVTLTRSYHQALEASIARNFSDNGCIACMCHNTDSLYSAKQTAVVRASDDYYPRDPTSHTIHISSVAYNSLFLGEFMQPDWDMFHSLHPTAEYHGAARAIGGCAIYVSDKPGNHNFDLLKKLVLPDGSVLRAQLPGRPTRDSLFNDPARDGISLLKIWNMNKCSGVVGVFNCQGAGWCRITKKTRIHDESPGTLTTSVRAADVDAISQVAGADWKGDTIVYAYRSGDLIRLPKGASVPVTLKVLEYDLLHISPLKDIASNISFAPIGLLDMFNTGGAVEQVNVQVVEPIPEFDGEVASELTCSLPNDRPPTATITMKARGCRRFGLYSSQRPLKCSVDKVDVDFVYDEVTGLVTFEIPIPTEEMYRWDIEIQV
Method: For routine analysis and monitoring the activity in the purification steps, alpha-galactosidase was assayed as described by Smart and Pharr (“Characterization of alpha-galactosidase from cucumber leaves”, Plant Physiology, 66:731-734, 1980), using p-nitrophenyl alpha-galactoside (pNPG) as substrate. Reaction was initiated by adding 50 μl enzyme aliquot to either 200 μl 100 mM pH 5.5 McIlvaine buffer or 100 mM pH 7.5 HEPES buffer, containing 5 mM pNPG at 35 C. The reaction was terminated after 10 min by adding 1 ml of 5% (w/v) Na2CO3 and activity expressed as nmol nitrophenol per min as measured at 410 nm. […] The assay was started by adding 50 μl enzyme preparation at 35 C and terminated after 10 to 20 min by 2 min boiling.
The fractions from the DEAE-Sepharose chromatography which were active at pH 7.5 were pooled and dialyzed against buffer A for 12 h prior to loading onto an HPLC ion exchange chromatography column (Mono-Q HR 5/5, Pharmacia, Uppsala, Sweden), previously equilibrated with buffer A. Bound proteins were eluted with a linear gradient of 0.1 to 0.45 M NaCl and the active fractions were detected using pNPG as substrate at pH 7.5 as described above. […] For the further purification of Form II the active fractions of the peak II were chromatographed on hydrophobic interaction chromatography. The fractions were pooled, brought to 1 M (NH4)2SO4 and loaded on to a hydrophobic interaction column (phenyl-Sepharose CL-4B, 0.5×12 cm, Pharmacia, Uppsala, Sweden) previously equilibrated with buffer A containing 1 M (NH4)2SO4. The protein was eluted with a reverse stepwise gradient from 1 to 0 M (NH4)2SO4 with 50 mM intervals in buffer A. Fractions containing the activity peak were collected and dialyzed for 12 h against buffer A and the dialysate was concentrated by reverse dialysis against solid sucrose. The enzyme, partially purified by hydrophobic interaction chromatography, was used for the characterization of Form II. The active fractions from the hydrophobic interaction column were further purified. Active fractions were separated electrophoretically using a Mini Prep Cell (Bio-Rad Laboratories, Hercules, Calif.) for discontinuous native-PAGE with 7% polyacrylamide, according to manufacturer's instructions. Fractions (0.25 ml/fraction) were assayed at pH 7.5 with pNPG as substrate for the activity. The active fractions were pooled, concentrated by Vivaspin Concentrator (Vivascience LTD, Lincoln, England), and run in a 8% SDS-PAGE. Proteins in the SDS-PAGE were identified using Coomassie Blue staining.

[2] = system: Cucurbita pepo leaf alkaline alpha-galactosidase ("LIV" enzyme); test: Substrate kinetics of Cucurbita pepo leaf alkaline alpha-galactosidase (Gaudreault and Webb); assay type: biochemical; settings: calculated for prior art "LIV" enzyme of Gaudreault and Webb
[3] = system: Cucurbita pepo leaf alkaline alpha-galactosidase ("LIV" enzyme); settings: Gaudreault and Webb; alkaline form; cited from earlier work

Vmax/Km ratio [1]: 0.61
Vmax ([1]; Lineweaver-Burk): 2.2 μmol mg^−1 protein min^−1
Vmax/Km ratio [2]: 0.65
Compound: OC[C@H]1O[C@H](OC[C@H]2O[C@H](OC[C@H]3O[C@H](O[C@]4(CO)O[C@H](CO)[C@@H](O)[C@@H]4O)[C@H](O)[C@@H](O)[C@@H]3O)[C@H](O)[C@@H](O)[C@H]2O)[C@H](O)[C@@H](O)[C@H]1O [Stachyose, O-alpha-D-galactopyranosyl-(1-6)-O-alpha-D-galactopyranosyl-(1-6)-O-alpha-D-glucopyranosyl-(1-2)-beta-D-fructofuranoside]
Km [3]: 4.5 mM

From patent publication US7514254B2, “Plant-derived alkaline alpha-galactosidase” (The State of Israel, Ministry of Agriculture & Rural …, priority 1998, dated 2009)
